Test results: patent publication US6627441B1, “Increasing levels of growth regulator and/or water stress during embryo development” (priority 1998, dated 2003)

Legend:
Assay type in all cases: cell-based
[1] = test system: white spruce somatic embryos; assay: Somatic seedling length after desiccation and germination (Example 8); settings: ABA raised to 40 μM and water potential to 400 or 540 mmol/kg with PEG, versus control; two weeks
From the text: In order to desiccate the somatic embryos, they were transferred on their filter paper supports to an empty petri dish. The lid was replaced and left unsealed to prevent contamination while allowing the moisture to escape from the dish. Somatic embryos were desiccated in a sterile chamber in which sterile air at ambient relative humidity (usually 20-60% r.h.) was passed. Similarly, embryos may be desiccated in one or more controlled gaseous environments of relative humidity, ranging from about 5% to 100%. […] Embryos were usually left two weeks to dry. Desiccated embryos can then be stored, preferably frozen, or germinated directly.
For germination, the somatic embryos upon their filter paper supports were rehydrated on germination medium. This consisted of ½ LM, 2% sucrose, 0.7% agar (Sigma), with no growth regulators, glutamine or casein hydrolysate, in petri dishes or Sigma PHYTATRAYS™. […]
Somatic embryos were produced following the methods described in Example 4. […] One batch of desiccated spruce embryos produced using these methods was measured and a moisture content of about 7.7 (±0.2)% recorded. […] Two weeks after imbibition, the somatic plantlets were removed from the culture medium and their lengths were measured. Between 53 to 63 somatic plantlets were recorded per treatment.

[2] = test system: white spruce somatic embryos; assay: Effect of ABA concentration and PEG medium water potential on maturation frequency and precocious germination (Example 1); settings: for mean maturation frequency / precocious germination (appearance of embryos): 6 weeks; for mean maturation frequency: embryos per dish; for total of means (maturation frequency): summed over PEG medium water potentials 230-310
Protocol: For maturation, the ½ LM basal medium was supplemented with 250 mg/L glutamine and 500 mg/L casein hydrolysate and 3% sucrose. Amino acids were filter sterilized and added to cooled media. ABA (Sigma A 2784) stock solutions were prepared by first dissolving ABA in concentrated NaOH. ABA was added after autoclaving. The purity and source of (+)-ABA can influence results. Purer (+)-ABA would be required in lower amounts. Actual levels need to be determined depending on the source of ABA, the components of the culture medium, and species being studied. […] It is also possible to complement the maturation medium by incorporating auxin and/or cytokinin, or plant growth promoters having auxin-like and cytokinin-like activity. Similarly, gibberellin is in principle also a suitable complementary growth promoter, and an empirical approach taking into account such factors as plant species, environment, and so forth should be used to determine the concentration etc. of gibberellin.
For maturation, the solidified culture medium in 9 cm petri dishes was overlaid with a filter paper support to facilitate transfers to fresh media. Onto this was pipetted 0.75 mL of a 20% suspension of precultured cells resuspended in fresh hormone-free preculture medium with 3% sucrose. Cultures were incubated at 25 ° C. in the dark and transferred to fresh medium every two weeks.
Thus, immature white spruce somatic embryos were cultured on medium containing 8, 16, 24, and 32 μM ABA. […] Embryos were transferred to fresh medium of the same composition and were cultured for a total of six weeks. The number of embryos per dish were then counted and the appearance of the embryos was recorded. Results are for three to eight dishes per treatment. A total of 2439 mature embryos were recorded.

[3] = test system: white spruce somatic embryos; assay: Reducing or increasing ABA with increasing water stress and desiccation, plant growth (Example 9); settings: for Shoot development / Survival / Total plant length: 8 weeks growth
Protocol: Experiments were conducted to determine the effects of decreasing ABA levels in combination with increasing water stress on development, desiccation tolerance and germination of white spruce. Embryos from preculture (Example 7, treatment 8) were plated onto the transfer schedule outlined below.
Cotyledonary embryos were visible after the second week of culture, and cotyledons were prominent from the fourth week during which time the somatic embryos were in contact with 40 to 20 μM of ABA. […] For germination, the best embryos which were not showing precocious germination were selected. Somatic embryos were either germinated directly or were desiccated then germinated as described above. Controls were prepared using embryos developed using pretreatment 8, in Example 7, followed by culture on solidified medium treatment 6 of Example 4.

[4] = test system: white spruce somatic embryos; assay: Effect of water stress and ABA on somatic embryo moisture contents (Example 4)
Protocol: Water potentials were measured for liquid media containing various osmotica at a range of concentrations, which were plotted on a curve. Determinations were made using a vapour pressure osmometer (Wescor). Moisture content determinations were done using methods described previously by Attree et al. (U.S. Pat. No. 5,464,769).
Embryos were cultured on medium containing 3% sucrose and ABA, with additional osmoticum adjusted to vary water potentials, as shown in Table 4.
Embryos were cultured for six weeks and moisture contents determined. Determinations for each treatment were made weekly, with three replicates per treatment. 50 embryos per replicate were used. In some instances, particularly for the control with low osmoticum, insufficient embryos were produced. In these cases, the minimum number of embryos used per replicate was thirty. For weeks 0 to 2, the embryos were too small to be used for moisture content determinations, so whole tissue was used instead.

[5] = treatment 3: PEG medium 290 mmol/kg with constant ABA 20 μM, six weeks

In the case of `CC1=CC(=O)CC(C)(C)[C@@]1(O)/C=C/C(C)=C\C(=O)O` [ABA, abscisic acid], the “increase in plantlet length” value [1] was about 50%, the mean maturation frequency ([2]; ABA 8 μm, PEG medium water potential 230 (mmol/kg)) was 29.7 and the mean maturation frequency ([2]; ABA 8 μm, PEG medium water potential 260 (mmol/kg)) was 53.0. The mean maturation frequency ([2]; ABA 8 μm, PEG medium water potential 290 (mmol/kg)) was 44.3, the mean maturation frequency ([2]; ABA 8 μm, PEG medium water potential 310 (mmol/kg)) was 10.7 and the “precocious germination (appearance of embryos)” value ([2]; ABA 8 μm, PEG medium water potential 310 (mol/kg)) was “greening”. The “total of means (maturation frequency)” value ([2]; ABA 8 μm) was 137.7, the mean maturation frequency ([2]; ABA 16 μm, PEG medium water potential 230 (mmol/kg)) was 15.6 and the mean maturation frequency ([2]; ABA 16 μm, PEG medium water potential 260 (mmol/kg)) was 44.0. For the same molecule, the “precocious germination (appearance of embryos)” value ([2]; ABA 16 μm, PEG medium water potential 260 (mol/kg)) was “greening”, the mean maturation frequency ([2]; ABA 16 μm, PEG medium water potential 290 (mmol/kg)) was 20.1 and the mean maturation frequency ([2]; ABA 16 μm, PEG medium water potential 310 (mmol/kg)) was 0. The “total of means (maturation frequency)” value ([2]; ABA 16 μm) was 79.7, the mean maturation frequency ([2]; ABA 24 μm, PEG medium water potential 230 (mmol/kg)) was 28.0 and the “precocious germination (appearance of embryos)” value ([2]; ABA 24 μm, PEG medium water potential 230 (mol/kg)) was “greening”. The mean maturation frequency ([2]; ABA 24 μm, PEG medium water potential 260 (mmol/kg)) was 22.8, the mean maturation frequency ([2]; ABA 24 μm, PEG medium water potential 290 (mmol/kg)) was 28.7 and the mean maturation frequency ([2]; ABA 24 μm, PEG medium water potential 310 (mmol/kg)) was 1.0. The “total of means (maturation frequency)” value ([2]; ABA 24 μm) was 80.5, the mean maturation frequency ([2]; ABA 32 μm, PEG medium water potential 230 (mmol/kg)) was 28.0 and the mean maturation frequency ([2]; ABA 32 μm, PEG medium water potential 260 (mmol/kg)) was 22.7. For the same molecule, the mean maturation frequency ([2]; ABA 32 μm, PEG medium water potential 290 (mmol/kg)) was 8.6, the mean maturation frequency ([2]; ABA 32 μm, PEG medium water potential 310 (mmol/kg)) was 2.5 and the “total of means (maturation frequency)” value ([2]; ABA 32 μm) was 61.8. For the same molecule, the “appearance of developed embryos, precocious germination” value ([3]; ABA decreasing 40, 20, 10, 0 μM with PEG 290, 400, 540, 540 mmol/kg over 6 weeks) was “slight swelling and slight greening”, the Shoot development ([3]; Increasing ABA, desiccated) was 93% and the Survival ([3]; Increasing ABA, desiccated) was 100%. It also gave a Total plant length ([3]; Increasing ABA, desiccated) of 34.5 mm, a Shoot development ([3]; Reducing ABA, desiccation) of 0% and a Survival ([3]; Reducing ABA, desiccation) of 80.5%. It also gave a Total plant length ([3]; Reducing ABA, desiccation) of 8.14 mm, a Shoot development ([3]; Reducing ABA, no desiccation) of 0% and a Survival ([3]; Reducing ABA, no desiccation) of 100%. For the same molecule, the Total plant length ([3]; Reducing ABA, no desiccation) was 25.8 mm, the new needle development ([3]; Reducing ABA, non-desiccated embryos, after 12 weeks of growth) was “none had shown new needle development” and the greening of embryos ([4]; treatment 1: ABA 20 to 40 μM, 3% sucrose, 190 mmol/kg, after six weeks) was “evidence of greening”. For the same molecule, the greening of embryos [4, 5] was “slight greening of cotyledons”, the “moisture content of somatic embryos” value [4, 5] was “below 55%” and the “moisture content of somatic embryos” value ([4]; treatment 4: PEG medium 290 mmol/kg with increasing ABA 20, 30, 40 μM, compared with treatment 3) was “further slight reductions in moisture content”. For the same molecule, the greening of embryos ([4]; treatment 5: ABA to 40 μM, PEG medium to 400 mmol/kg) was “No greening”, the “moisture content of somatic embryos” value ([4]; treatment 5: ABA to 40 μM, PEG medium to 400 mmol/kg after week two, compared with treatment 4) was “a further reduction in moisture content” and the greening of embryos ([4]; treatment 6: ABA to 40 μM, PEG medium to 540 mmol/kg) was “No greening”. For the same molecule, the “yield of mature somatic embryos” value ([4]; treatment 6: PEG water potential raised to 540 mmol/kg with ABA to 40 μM) was 300-350 mature somatic embryos per dish and the “moisture content of somatic embryos” value ([4]; treatment 6: PEG water potential raised to 540 mmol/kg with ABA to 40 μM, end of six-week culture) was about 40%.
